From patent US7563792B2, “Biguanide and dihydrotriazine derivatives” (priority 2002, dated 2009)

Tests used:
[1] = system: Plasmodium berghei (KBG strain); test: Mouse malaria model (modified Thomson model), percent survival; assay type: in vivo, CD-1 mice; conditions: twice a day for 3 days from day 3 post infection, orally or subcutaneously (route not stated), P. berghei infected mice
Protocol: Seven (7) mice are typically used in each experimental group. The mice are housed 3 to 4 per cage and are maintained at a temperature of […] with a 12-hour day light cycle. The mice are fed a standard Ralston Purina® mouse chow and given water ad. lib. Their cages and water bottles were changed twice a week.
Preparation of the test compounds oral administration involved grinding the material with a mortar and pestle before diluting in 0.5% hydroxyethylcellulose-Tween 80 (polyoxyethylene (20) sorbitan mono-oleate) for oral administration. For subcutaneous administration, the test compounds were suspended in peanut oil.
The mice were infected intraperitoneally with 50,000 red blood cells infected with a drug-sensitive strain of Plasmodium berghei (KBG strain) on day 0. The inoculum was obtained from a donor mouse having a parasitemia between 5% and 10%.
The compounds were administered according to the weight of the mice. The mice were weighed each day before the drugs were administered. Test compounds are given in a volume of 10 ml/kg of body weight. Compounds were administered either orally or subcutaneously twice a day (6 hours apart) for 3 days starting on the 3rd day post infection. Blood films were taken on day 6 post-infection and twice weekly for 30 days. The level of parasites (parasitemia) was determined from the Giemsa stained blood films.
Antimalarial activity was quantified by a percent survival calculated for each treated group on Day 31.

[2] = system: Mycobacterium avium; test: In vitro MIC against Mycobacterium avium isolates, microtiter plate, turbidity; assay type: cell-based; conditions: 18 to 21 days
[3] = system: Mycobacterium tuberculosis; test: In vitro MIC against Mycobacterium tuberculosis, microtiter plate, turbidity; assay type: cell-based; conditions: Mycobacterium tuberculosis strain Erdmann; 37° C., 18 to 21 days
Protocol: Antituberculosis activities were assessed in vitro using the biologically active dihydrotriazine metabolites of the imidodicarbonimidic diamides. The assay methodology is detailed as follows:
To tissue culture treated 96-well microtiter plates were added 20 μl of a solution of test compound. The plates were allowed to dry in an incubator at a temperature between 50° to 60° C. for 20 to 30 minutes. Then the plates were subjected to UV light for 15 minutes to kill bacteria. The plates were generally used within 2-3 days of being made. To each well was added 100 μl of culture broth and the appropriate strain of Mycobacterium tuberculosis or Mycobacterium avium. The plates were then incubated at 37° C. for between 18 days to 21 days. Growth was assessed by turbidity measurement and MICs reported in μg/ml.

Compound | % SURVIVAL AT DAY 31 ([1]; dose 4 mg/kg) [%] | % SURVIVAL AT DAY 31 ([1]; dose 8 mg/kg) [%] | % SURVIVAL AT DAY 31 ([1]; dose 16 mg/kg) [%] | % SURVIVAL AT DAY 31 ([1]; dose 32 mg/kg) [%] | % SURVIVAL AT DAY 31 ([1]; dose 64 mg/kg) [%] | MIC ([2]; Mycobacterium avium strain 101, 37° C.) [µg/mL] | MIC ([2]; Mycobacterium avium strain 3404-4, 37° C.) [µg/mL] | MIC ([2]; Mycobacterium avium strain Farino, 37° C.) [µg/mL] | MIC ([2]; Mycobacterium avium strain LPR, 37° C.) [µg/mL] | MIC [3] [µg/mL]
1-(3-(4-trifluoromethoxyphenoxy)propyloxy)-5-isopropyl biguanide hemisuccinate [Compound of Example 5] | 0 | 14 | 86 | 100 | 100 | – | – | – | – | –
Cl.N=C(NOCCCOc1ccc(OC(F)(F)F)cc1)NC(=N)NC1CC1 [Compound of Example 6, 1-(3-(4-trifluoromethoxyphenoxy)propyloxy)-5-cyclopropylbiguanide hydrochloride] | 0 | 14 | 43 | 71 | 100 | – | – | – | – | –
CC1(C)NC(=N)NC(=N)N1OCCCOc1ccc(OC(F)(F)F)cc1.Cl [Metabolite of Compound of Example 5, 6,6-Dimethyl-1-[3-(4-trifluoromethoxy-phenoxy)-propoxy][1,3,5]triazinane-2,4-diylidenediamine hydrochloride] | – | – | – | – | – | 3.1 | 0.6 ± 0.3 | 1 ± 0.85 | 37.5 ± 17.7 | 19
